According to the NIST ThermoML archive (doi:10.1016/j.tca.2016.01.016):
Several values for one entry are separate records, joined by “and”; a condition that tells them apart may be missing. Equal values may be shown once.

Test: molar heat capacity at constant pressure
Conditions: 101.33 kPa, Crystal, Small sample (50 mg) DSC

O=P([O-])([O-])[O-].[Dy+3] [dysprosium(III) phosphate]
Conditions | molar heat capacity at constant pressure
348.15 K | 117.5 J/K/mol and 118.3 J/K/mol
353.15 K | 119.1 J/K/mol and 119.4 J/K/mol
358.15 K | 120.4 J/K/mol and 120.4 J/K/mol
363.15 K | 121.5 J/K/mol and 121.3 J/K/mol
368.15 K | 122.5 J/K/mol and 122.3 J/K/mol
373.15 K | 123.3 J/K/mol and 123.2 J/K/mol
378.15 K | 124.1 J/K/mol and 124.1 J/K/mol
383.15 K | 124.9 J/K/mol and 124.9 J/K/mol
388.15 K | 125.7 J/K/mol and 125.7 J/K/mol
393.15 K | 126.4 J/K/mol and 126.5 J/K/mol
398.15 K | 127.3 J/K/mol and 127.3 J/K/mol
403.15 K | 128.1 J/K/mol and 128 J/K/mol
408.15 K | 128.9 J/K/mol and 128.7 J/K/mol
413.15 K | 129.6 J/K/mol and 129.4 J/K/mol
418.15 K | 130.4 J/K/mol and 130.1 J/K/mol
423.15 K | 131 J/K/mol and 130.8 J/K/mol
428.15 K | 131.7 J/K/mol and 131.4 J/K/mol
433.15 K | 132.3 J/K/mol and 132 J/K/mol
438.15 K | 132.8 J/K/mol and 132.6 J/K/mol
443.15 K | 133.4 J/K/mol and 133.2 J/K/mol
448.15 K | 133.9 J/K/mol and 133.8 J/K/mol
453.15 K | 134.5 J/K/mol and 134.3 J/K/mol
458.15 K | 135 J/K/mol and 134.9 J/K/mol
463.15 K | 135.5 J/K/mol and 135.4 J/K/mol
468.15 K | 136.1 J/K/mol and 135.9 J/K/mol
473.15 K | 136.6 J/K/mol and 136.4 J/K/mol
478.15 K | 137 J/K/mol and 136.9 J/K/mol
483.15 K | 137.4 J/K/mol and 137.4 J/K/mol
488.15 K | 137.9 J/K/mol and 137.8 J/K/mol
493.15 K | 138.3 J/K/mol and 138.3 J/K/mol
498.15 K | 138.7 J/K/mol and 138.7 J/K/mol
503.15 K | 139.1 J/K/mol and 139.1 J/K/mol
508.15 K | 139.5 J/K/mol and 139.5 J/K/mol
513.15 K | 139.9 J/K/mol and 140 J/K/mol
518.15 K | 140.3 J/K/mol and 140.3 J/K/mol
523.15 K | 140.7 J/K/mol and 140.7 J/K/mol
528.15 K | 141 J/K/mol and 141.1 J/K/mol
533.15 K | 141.3 J/K/mol and 141.5 J/K/mol
538.15 K | 141.6 J/K/mol and 141.9 J/K/mol
543.15 K | 142 J/K/mol and 142.2 J/K/mol
548.15 K | 142.4 J/K/mol and 142.6 J/K/mol
553.15 K | 142.7 J/K/mol and 142.9 J/K/mol
558.15 K | 143 J/K/mol and 143.2 J/K/mol
563.15 K | 143.4 J/K/mol and 143.6 J/K/mol
568.15 K | 143.7 J/K/mol and 143.9 J/K/mol
573.15 K | 143.9 J/K/mol and 144.2 J/K/mol
578.15 K | 144.3 J/K/mol and 144.5 J/K/mol
583.15 K | 144.6 J/K/mol and 144.8 J/K/mol
588.15 K | 144.8 J/K/mol and 145.1 J/K/mol
593.15 K | 145.1 J/K/mol and 145.4 J/K/mol
598.15 K | 145.3 J/K/mol and 145.7 J/K/mol
603.15 K | 145.6 J/K/mol and 145.9 J/K/mol
608.15 K | 145.9 J/K/mol and 146.2 J/K/mol
613.15 K | 146.1 J/K/mol and 146.5 J/K/mol
618.15 K | 146.4 J/K/mol and 146.8 J/K/mol
623.15 K | 146.7 J/K/mol and 147 J/K/mol
628.15 K | 147 J/K/mol and 147.3 J/K/mol
633.15 K | 147.3 J/K/mol and 147.5 J/K/mol
638.15 K | 147.5 J/K/mol and 147.8 J/K/mol
643.15 K | 147.8 J/K/mol and 148 J/K/mol
648.15 K | 148 J/K/mol and 148.2 J/K/mol
653.15 K | 148.2 J/K/mol and 148.5 J/K/mol
658.15 K | 148.5 J/K/mol and 148.7 J/K/mol
663.15 K | 148.8 J/K/mol and 148.9 J/K/mol
668.15 K | 149.1 J/K/mol and 149.1 J/K/mol
673.15 K | 149.3 J/K/mol and 149.3 J/K/mol
678.15 K | 149.6 J/K/mol and 149.6 J/K/mol
683.15 K | 149.9 J/K/mol and 149.8 J/K/mol
688.15 K | 150.1 J/K/mol and 150 J/K/mol
693.15 K | 150.4 J/K/mol and 150.2 J/K/mol
698.15 K | 150.7 J/K/mol and 150.4 J/K/mol
703.15 K | 150.9 J/K/mol and 150.6 J/K/mol
708.15 K | 151.1 J/K/mol and 150.8 J/K/mol
713.15 K | 151.4 J/K/mol and 151 J/K/mol
718.15 K | 151.6 J/K/mol and 151.1 J/K/mol
723.15 K | 151.8 J/K/mol and 151.3 J/K/mol
728.15 K | 152 J/K/mol and 151.5 J/K/mol
733.15 K | 152.1 J/K/mol and 151.7 J/K/mol
738.15 K | 152.3 J/K/mol and 151.9 J/K/mol
743.15 K | 152.5 J/K/mol and 152 J/K/mol
748.15 K | 152.7 J/K/mol and 152.2 J/K/mol
753.15 K | 152.9 J/K/mol and 152.4 J/K/mol
758.15 K | 152.9 J/K/mol and 152.5 J/K/mol
763.15 K | 153.1 J/K/mol and 152.7 J/K/mol
768.15 K | 153.3 J/K/mol and 152.9 J/K/mol
773.15 K | 153.4 J/K/mol and 153 J/K/mol
778.15 K | 153.4 J/K/mol and 153.2 J/K/mol
783.15 K | 153.6 J/K/mol and 153.3 J/K/mol
788.15 K | 153.5 J/K/mol
793.15 K | 153.7 J/K/mol and 153.6 J/K/mol
798.15 K | 153.8 J/K/mol
803.15 K | 154 J/K/mol and 153.9 J/K/mol
808.15 K | 154.1 J/K/mol
813.15 K | 154.2 J/K/mol
818.15 K | 154.3 J/K/mol and 154.4 J/K/mol
823.15 K | 154.4 J/K/mol and 154.5 J/K/mol
828.15 K | 154.5 J/K/mol and 154.6 J/K/mol
833.15 K | 154.5 J/K/mol and 154.8 J/K/mol
838.15 K | 154.6 J/K/mol and 154.9 J/K/mol
843.15 K | 154.8 J/K/mol and 155 J/K/mol
848.15 K | 154.9 J/K/mol and 155.2 J/K/mol
853.15 K | 154.9 J/K/mol and 155.3 J/K/mol
858.15 K | 155 J/K/mol and 155.4 J/K/mol
863.15 K | 155.1 J/K/mol and 155.6 J/K/mol
868.15 K | 155.2 J/K/mol and 155.7 J/K/mol
